Laboratory results from patent US20240025862A1, “SUBSTITUTED N-PHENYLURACILS AND SALTS THEREOF, AND USE THEREOF AS HERBICIDAL ACTIVE SUBSTANCES” (Bayer Aktiengesellschaft, priority 2020, published 2024).

Assays:
Type in all cases: in vivo
[1] = test system: Pharbitis purpurea (PHBPU); assay: Post-emergence herbicidal action, greenhouse pot test; details: Ipomoea purpurea, 504 h, read-out: Post-emergence action against PHBPU in %
Procedure, shortened: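 Activity was scored by eye about 3 weeks after treatment against untreated plants, where 100% means dead plants and 0% means no difference. Plants at the one-leaf stage received a foliar spray of WP or EC formulations in water plus 0.5% additive (600 l/ha, up to 20 g/ha). Plants were grown in sandy loam pots in a greenhouse for 2–3 weeks before spraying.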

[2] = test system: Alopecurus myosuroides (ALOMY); assay: Post-emergence herbicidal action, greenhouse pot test (also comparative test C)
Procedure, shortened: (§1)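 Green parts of one-leaf-stage plants are sprayed at 600 l/ha with formulated compound plus 0.5% additive, then kept under optimum greenhouse conditions for about 3 weeks. Damage is scored visually, where 100% means dead plants and 0% means no difference from controls.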

[3] = test system: Echinochloa crus-galli (ECHCG); assay: as above
Procedure, shortened: as §1

[4] = test system: Matricaria inodora (MATIN); assay: as above
Procedure, shortened: as §1

Setaria viridis (SETVI) = assay: as above
Procedure, shortened: as §1

Oryza sativa (ORYSA) = assay: Post-emergence crop plant compatibility, greenhouse pot test (also comparative test C)
Procedure, shortened: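 Visual damage versus untreated plants (0% = like control, 100% = plants died) was scored about 3 weeks after a post-emergence spray in greenhouse pots. Treatment: one-leaf stage, WP or EC in water at 600 l/ha with 0.5% additive; a/b/c mark different dosages on the same crop.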

[5] = application rate of 5 g or less per hectare, tables C1 to C4
[6] = comparative test C, application rate 1.25 g/ha

compatibility with respect to the crop plant Oryza sativa (ORYSA) by comparison with literature compound a-17 / 3-14 (Oryza sativa (ORYSA); application rate of 1.25 g per hectare, table C5): distinct improvement in compatibility
ORYSA (efficacy in %) (Oryza sativa (ORYSA); comparative test C, application rate 1.25 g/ha, crop plant compatibility): 0%
Structure (SMILES): COCCOC(=O)COc1ccccc1Oc1cc(-n2c(=O)cc(C(F)(F)F)n(C)c2=O)c(F)cc1Cl [I.7-1, 2-Methoxyethyl (2-{2-chloro-4-fluoro-5-[3-methyl-2,6-dioxo-4-(trifluoromethyl)-3,6-dihydropyrimidin-1(2H)-yl]phenoxy}phenoxy)acetate]
pest or weed control at 1.25 g/ha ([1]; dosage 1.25 g/ha): 100%
pest or weed control at 5 g/ha ([1]; dosage 5 g/ha): 100%
pest or weed control at 20 g/ha ([1]; dosage 20 g/ha): 100%
pest or weed control at 5 g/ha ([2]; Alopecurus myosuroides, 504 h, 5 g/ha, rated visually after about 3 weeks vs untreated controls, 100% = plants have died, read-out: Post-emergence action at 5 g/ha against ALOMY in %): 80%
pest or weed control at 20 g/ha ([2]; Alopecurus myosuroides, 504 h, 20 g/ha, rated visually after about 3 weeks vs untreated controls, 100% = plants have died, read-out: Post-emergence action at 20 g/ha against ALOMY in %): 100%
herbicidal efficacy against ALOMY by comparison with literature compound a-17 / 3-14 [2, 5]: distinct improvement in herbicidal efficacy
Post-emergence action at 1.25 g/ha against ECHCG in % ([3]; 1.25 g/ha, rated visually after about 3 weeks vs untreated controls, 100% = plants have died): 90%
pest or weed control at 5 g/ha ([3]; Echinochloa crus-galli, 504 h, dosage 5 g/ha, read-out: Post-emergence action against ECHCG in %): 100%
pest or weed control at 20 g/ha ([3]; Echinochloa crus-galli, 504 h, dosage 20 g/ha, read-out: Post-emergence action against ECHCG in %): 90%
herbicidal efficacy against ECHCG by comparison with literature compound a-17 / 3-14 [3, 5]: distinct improvement in herbicidal efficacy
ECHCG (efficacy in %) [3, 6]: 90%
pest or weed control at 1.25 g/ha ([4]; Tripleurospermum inodorum, 504 h, dosage 1.25 g/ha, read-out: Post-emergence action against MATIN in %): 100%
pest or weed control at 5 g/ha ([4]; Tripleurospermum inodorum, 504 h, dosage 5 g/ha, read-out: Post-emergence action against MATIN in %): 100%
pest or weed control at 20 g/ha ([4]; Tripleurospermum inodorum, 504 h, dosage 20 g/ha, read-out: Post-emergence action against MATIN in %): 100%
herbicidal efficacy against MATIN by comparison with literature compound a-17 / 3-14 [4, 5]: distinct improvement in herbicidal efficacy
MATIN (efficacy in %) [4, 6]: 100%
pest or weed control at 20 g/ha (Setaria viridis (SETVI); Setaria viridis, 504 h, 20 g/ha, read-out: Post-emergence action against SETVI): 100%
pest or weed control at 1.25 g/ha (Setaria viridis (SETVI); Setaria viridis, 504 h, dosage 1.25 g/ha, read-out: Post-emergence action against SETVI in %): 100%
pest or weed control at 5 g/ha (Setaria viridis (SETVI); Setaria viridis, 504 h, dosage 5 g/ha, read-out: Post-emergence action against SETVI in %): 100%
herbicidal efficacy against SETVI by comparison with literature compound a-17 / 3-14 (Setaria viridis (SETVI); [5]): distinct improvement in herbicidal efficacy
SETVI (efficacy in %) (Setaria viridis (SETVI); [6]): 100%
